Results reported in publication PMC11530593, “Structural mechanism of human HCN1 hyperpolarization-activated channel inhibition by ivabradine” (The Journal of Biological Chemistry, 2024).
Changes are numbered by the printed parent chain.

Assays:
[1] = target: T1, HCN1 mutant F285A (Homo sapiens, UniProt O60741, F285A); experiment: Whole-cell patch-clamp, Ih inhibition, HCN1 mutant; assay type: cell-based; conditions: electrophysiological recordings, read-out: IC50 (Fig. 2F)
T1 construct: Full-length WT or mutant human HCN1 were cloned into the pcDNA3.1 vector; expressed in transfected cells; host or cells: HeLa cells, pcDNA3.1 vector, transient lipofection
T1 sequence (O60741 1-890 F285A): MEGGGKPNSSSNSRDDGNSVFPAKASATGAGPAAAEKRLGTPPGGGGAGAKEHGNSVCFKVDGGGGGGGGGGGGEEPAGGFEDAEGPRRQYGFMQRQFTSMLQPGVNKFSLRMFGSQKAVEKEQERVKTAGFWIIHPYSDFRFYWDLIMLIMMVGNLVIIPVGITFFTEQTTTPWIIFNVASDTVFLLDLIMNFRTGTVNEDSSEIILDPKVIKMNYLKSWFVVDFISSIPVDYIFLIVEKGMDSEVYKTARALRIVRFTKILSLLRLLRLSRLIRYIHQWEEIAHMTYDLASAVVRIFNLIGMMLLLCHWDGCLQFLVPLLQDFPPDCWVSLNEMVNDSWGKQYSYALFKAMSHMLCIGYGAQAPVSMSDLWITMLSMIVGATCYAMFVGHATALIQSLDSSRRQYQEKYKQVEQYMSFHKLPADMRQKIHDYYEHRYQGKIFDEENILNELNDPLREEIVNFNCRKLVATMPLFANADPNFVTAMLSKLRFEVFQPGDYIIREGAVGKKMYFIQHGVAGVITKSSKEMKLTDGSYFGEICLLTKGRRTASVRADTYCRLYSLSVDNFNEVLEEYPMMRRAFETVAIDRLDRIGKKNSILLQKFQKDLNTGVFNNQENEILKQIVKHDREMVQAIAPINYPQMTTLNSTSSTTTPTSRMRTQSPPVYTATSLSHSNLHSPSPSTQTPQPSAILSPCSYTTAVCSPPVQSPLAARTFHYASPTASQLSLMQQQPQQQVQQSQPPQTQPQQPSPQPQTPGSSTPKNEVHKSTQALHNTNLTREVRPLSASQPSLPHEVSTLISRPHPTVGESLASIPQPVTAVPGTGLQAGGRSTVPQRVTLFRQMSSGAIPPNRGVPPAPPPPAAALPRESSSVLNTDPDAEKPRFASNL
Protocol: (§1) To elucidate the contribution of these residues to the inhibitory effect of ivabradine, we introduced mutations in ivabradine-interacting residues, converting them into alanines (Fig. 2F).
(§2) Full-length WT or mutant human HCN1 were cloned into the pcDNA3.1 vector for electrophysiological experiments. HeLa cells (from Thermo Fisher Scientific) cultured in Dulbecco's modified Eagle's medium (from Solarbio Life Science) + 10% fetal bovine serum (from ExCell Bio) at 37 °C were transiently transfected using lipofection, and whole-cell patch-clamp recordings were obtained using the Axon 200B amplifier (Molecular Devices) and clampex software (https://www.moleculardevices.com/products/axon-patch-clamp-system/acquisition-and-analysis-software/pclamp-software-suite), 36 to 48 h posttransfection. The extracellular solution contained 110 mM NaCl, 0.5 mM MgCl2, 1.8 mM CaCl2, 5 mM Hepes, 30 mM KCl, and pH was adjusted to 7.4 with NaOH, while the pipette solution contained 130 mM KCl, 10 mM NaCl, 0.5 mM MgCl2, 1 mM EGTA, 5 mM Hepes, and pH was adjusted to 7.4 with KOH. The recordings were performed at room temperature, voltage-clamp mode, and filtered at 1 kHz. The sampling frequency was 10 kHz, and the series resistance was limited to 5 MΩ. To elicit channel currents, step pulses of 3 s duration ranging from −180 mV to −30 mV were applied, followed by a step to −180 mV lasting 1.25 s. The tail currents evoked by the second step were used to determine the voltage-dependent activation curves and calculate the midpoint of activation potential (V1/2). The half maximal inhibitory concentration (IC50) of drugs was determined by recording currents at a pulse of −140 mV and analyzing current amplitudes at varying drug concentrations. The IC50 value was calculated using the Hill equation.

[2] = target: T2, HCN1 mutant D140A (Homo sapiens, UniProt O60741, D140A); experiment: Whole-cell patch-clamp, Ih inhibition, HCN1 mutant; assay type: cell-based
T2 construct: Full-length WT or mutant human HCN1 were cloned into the pcDNA3.1 vector; expressed in transfected cells; host or cells: HeLa cells, pcDNA3.1 vector, transient lipofection
T2 sequence (O60741 1-890 D140A): T1 sequence (O60741 1-890 F285A) with D140A, A285F
Protocol: as §1, §2

IC50 [1]: 13.4 µM
IC50 ([2]; D140A mutant, electrophysiological recordings, read-out: IC50 (Fig. 2F)): 27.6 µM
change in potency by mutation ([2]; D140A versus WT): dramatic decrease
Compound: COc1cc2c(cc1OC)CC(=O)N(CCCN(C)C[C@H]1Cc3cc(OC)c(OC)cc31)CC2 [ivabradine]
